# Experiment: Patient incidence of adverse events (CTCAE version 4.0)
# Format: in vivo
# Details: dose escalation
# Excerpt: Each patient was monitored for 21 days for the occurrence of dose-limiting toxicities (DLTs), defined as febrile neutropenia, neutropenic infection, grade 4 neutropenia lasting >7 days, grade ≥ 3 thrombocytopenia lasting >7 days (solid tumors only), grade 3 thrombocytopenia with grade ≥ 2 bleeding (solid tumors only), grade 3 or 4 thrombocytopenia with grade > 1 bleeding (multiple myeloma only), grade 4 thrombocytopenia (solid tumors only), or grade 4 thrombocytopenia lasting >14 days (multiple myeloma only), or as grade ≥ 3 nausea, vomiting, or diarrhea after support; grade 3 fatigue lasting >7 days; any other grade ≥ 3 adverse event (AE); grade ≥ 3 kidney injury (multiple myeloma only), or treatment-related AEs not returning to grade ≤ 1 (solid tumors only) per Common Terminology Criteria for Adverse Events (CTCAE), version 4.0. The MTD was defined as the maximum dose, at which the probability of a DLT was ≤25% in Part 1A and ≤ 33% in Parts 1B and 1C. Treatment continued until disease progression, intolerable toxicity, or withdrawal of consent.
# AEs were recorded for all enrolled patients.
compound,measurement,setting,value
CC(C)[C@@H](CS(=O)(=O)C(C)C)N1C(=O)[C@@](C)(CC(=O)O)C[C@H](c2cccc(Cl)c2)[C@H]1c1ccc(Cl)cc1 [AMG 232],Treatment-related serious AE: Dehydration (grade 2),30 mg (n = 3),0 n (%)
same,Treatment-related serious AE: Diarrhea,30 mg (n = 3),0 n (%)
same,"Treatment-related serious AE: Diarrhea, Grade 2",30 mg (n = 3),0 n (%)
same,"Treatment-related serious AE: Diarrhea, Grade 3",30 mg (n = 3),0 n (%)
same,Treatment-related serious AE: Febrile neutropenia (grade 3),30 mg (n = 3),0 n (%)
same,Treatment-related serious AE: Hematemesis (grade 3),30 mg (n = 3),0 n (%)
same,Treatment-related serious AE: Nausea (grade 3),30 mg (n = 3),0 n (%)
same,Treatment-related serious AE: Neutropenia (grade 4),30 mg (n = 3),0 n (%)
same,Treatment-related serious AE: Non-cardiac chest pain (grade 3),30 mg (n = 3),0 n (%)
same,Treatment-related serious AE: Thrombocytopenia (grade 4),30 mg (n = 3),0 n (%)
same,Treatment-related serious AE: Vomiting,30 mg (n = 3),0 n (%)
same,"Treatment-related serious AE: Vomiting, Grade 2",30 mg (n = 3),0 n (%)
same,"Treatment-related serious AE: Vomiting, Grade 3",30 mg (n = 3),0 n (%)
same,Patients with any treatment-emergent AE,60 mg (n = 4),4 (100) n (%)
same,Patients with any treatment-emergent serious AE,60 mg (n = 4),0 n (%)
same,Patients with any treatment-related AE,60 mg (n = 4),3 (75) n (%)
same,"Patients with any treatment-related AE, Grade 3",60 mg (n = 4),0 n (%)
same,"Patients with any treatment-related AE, Grade 4",60 mg (n = 4),0 n (%)
same,"Patients with any treatment-related AE, Grade 5",60 mg (n = 4),0 n (%)
same,Patients with any treatment-related serious AE,60 mg (n = 4),0 n (%)
same,Treatment-related AE: Abdominal pain,60 mg (n = 4),0 n (%)
same,Treatment-related AE: Anemia,60 mg (n = 4),0 n (%)
same,Treatment-related AE: Asthenia,60 mg (n = 4),0 n (%)
same,Treatment-related AE: Decrease appetite,60 mg (n = 4),1 (25) n (%)
same,Treatment-related AE: Diarrhea,60 mg (n = 4),1 (25) n (%)
same,Treatment-related AE: Dysgeusia,60 mg (n = 4),0 n (%)
same,Treatment-related AE: Fatigue,60 mg (n = 4),1 (25) n (%)
same,Treatment-related AE: Myalgia,60 mg (n = 4),0 n (%)
same,Treatment-related AE: Nausea,60 mg (n = 4),3 (75) n (%)
same,Treatment-related AE: Neutropenia,60 mg (n = 4),0 n (%)
same,Treatment-related AE: Thrombocytopenia,60 mg (n = 4),0 n (%)
same,Treatment-related AE: Upper abdominal pain,60 mg (n = 4),0 n (%)
same,Treatment-related AE: Vomiting,60 mg (n = 4),0 n (%)
same,Treatment-related serious AE: Abdominal pain (grade 2),60 mg (n = 4),0 n (%)
same,Treatment-related serious AE: Dehydration (grade 2),60 mg (n = 4),0 n (%)
same,Treatment-related serious AE: Diarrhea,60 mg (n = 4),0 n (%)
same,"Treatment-related serious AE: Diarrhea, Grade 2",60 mg (n = 4),0 n (%)
same,"Treatment-related serious AE: Diarrhea, Grade 3",60 mg (n = 4),0 n (%)
same,Treatment-related serious AE: Febrile neutropenia (grade 3),60 mg (n = 4),0 n (%)
same,Treatment-related serious AE: Hematemesis (grade 3),60 mg (n = 4),0 n (%)
same,Treatment-related serious AE: Nausea (grade 3),60 mg (n = 4),0 n (%)
same,Treatment-related serious AE: Neutropenia (grade 4),60 mg (n = 4),0 n (%)
same,Treatment-related serious AE: Non-cardiac chest pain (grade 3),60 mg (n = 4),0 n (%)
same,Treatment-related serious AE: Thrombocytopenia (grade 4),60 mg (n = 4),0 n (%)
same,Treatment-related serious AE: Vomiting,60 mg (n = 4),0 n (%)
same,"Treatment-related serious AE: Vomiting, Grade 2",60 mg (n = 4),0 n (%)
same,"Treatment-related serious AE: Vomiting, Grade 3",60 mg (n = 4),0 n (%)
same,Patients with any treatment-emergent AE,120 mg (n = 7),7 (100) n (%)
same,Patients with any treatment-emergent serious AE,120 mg (n = 7),3 (43) n (%)
same,Patients with any treatment-related AE,120 mg (n = 7),7 (100) n (%)
same,"Patients with any treatment-related AE, Grade 3",120 mg (n = 7),1 (14) n (%)
same,"Patients with any treatment-related AE, Grade 4",120 mg (n = 7),1 (14) n (%)
same,"Patients with any treatment-related AE, Grade 5",120 mg (n = 7),0 n (%)
same,Patients with any treatment-related serious AE,120 mg (n = 7),0 n (%)
same,Treatment-related AE: Abdominal pain,120 mg (n = 7),0 n (%)
same,Treatment-related AE: Anemia,120 mg (n = 7),0 n (%)
same,Treatment-related AE: Asthenia,120 mg (n = 7),0 n (%)
same,Treatment-related AE: Decrease appetite,120 mg (n = 7),2 (29) n (%)
same,Treatment-related AE: Diarrhea,120 mg (n = 7),3 (43) n (%)
same,Treatment-related AE: Dysgeusia,120 mg (n = 7),0 n (%)
same,Treatment-related AE: Fatigue,120 mg (n = 7),3 (43) n (%)
same,Treatment-related AE: Myalgia,120 mg (n = 7),1 (14) n (%)
same,Treatment-related AE: Nausea,120 mg (n = 7),3 (43) n (%)
same,Treatment-related AE: Neutropenia,120 mg (n = 7),0 n (%)
same,Treatment-related AE: Thrombocytopenia,120 mg (n = 7),1 (14) n (%)
same,Treatment-related AE: Upper abdominal pain,120 mg (n = 7),1 (14) n (%)
same,Treatment-related AE: Vomiting,120 mg (n = 7),2 (29) n (%)
same,Treatment-related serious AE: Abdominal pain (grade 2),120 mg (n = 7),0 n (%)
same,Treatment-related serious AE: Dehydration (grade 2),120 mg (n = 7),0 n (%)
same,Treatment-related serious AE: Diarrhea,120 mg (n = 7),0 n (%)
same,"Treatment-related serious AE: Diarrhea, Grade 2",120 mg (n = 7),0 n (%)
same,"Treatment-related serious AE: Diarrhea, Grade 3",120 mg (n = 7),0 n (%)
same,Treatment-related serious AE: Febrile neutropenia (grade 3),120 mg (n = 7),0 n (%)
same,Treatment-related serious AE: Hematemesis (grade 3),120 mg (n = 7),0 n (%)
same,Treatment-related serious AE: Nausea (grade 3),120 mg (n = 7),0 n (%)
same,Treatment-related serious AE: Neutropenia (grade 4),120 mg (n = 7),0 n (%)
same,Treatment-related serious AE: Non-cardiac chest pain (grade 3),120 mg (n = 7),0 n (%)
same,Treatment-related serious AE: Thrombocytopenia (grade 4),120 mg (n = 7),0 n (%)
same,Treatment-related serious AE: Vomiting,120 mg (n = 7),0 n (%)
same,"Treatment-related serious AE: Vomiting, Grade 2",120 mg (n = 7),0 n (%)
same,"Treatment-related serious AE: Vomiting, Grade 3",120 mg (n = 7),0 n (%)
same,Patients with any treatment-emergent AE,240 mg (n = 8),8 (100) n (%)
same,Patients with any treatment-emergent serious AE,240 mg (n = 8),4 (50) n (%)
same,Patients with any treatment-related AE,240 mg (n = 8),8 (100) n (%)
same,"Patients with any treatment-related AE, Grade 3",240 mg (n = 8),3 (38) n (%)
same,"Patients with any treatment-related AE, Grade 4",240 mg (n = 8),0 n (%)
same,"Patients with any treatment-related AE, Grade 5",240 mg (n = 8),0 n (%)
same,Patients with any treatment-related serious AE,240 mg (n = 8),2 (25) n (%)
same,Treatment-related AE: Abdominal pain,240 mg (n = 8),2 (25) n (%)
same,Treatment-related AE: Anemia,240 mg (n = 8),1 (13) n (%)
same,Treatment-related AE: Asthenia,240 mg (n = 8),1 (13) n (%)
same,Treatment-related AE: Decrease appetite,240 mg (n = 8),2 (25) n (%)
same,Treatment-related AE: Diarrhea,240 mg (n = 8),6 (75) n (%)
same,Treatment-related AE: Dysgeusia,240 mg (n = 8),2 (25) n (%)
same,Treatment-related AE: Fatigue,240 mg (n = 8),4 (50) n (%)
same,Treatment-related AE: Myalgia,240 mg (n = 8),0 n (%)
same,Treatment-related AE: Nausea,240 mg (n = 8),5 (63) n (%)
same,Treatment-related AE: Neutropenia,240 mg (n = 8),0 n (%)
same,Treatment-related AE: Thrombocytopenia,240 mg (n = 8),1 (13) n (%)
same,Treatment-related AE: Upper abdominal pain,240 mg (n = 8),1 (13) n (%)
same,Treatment-related AE: Vomiting,240 mg (n = 8),5 (63) n (%)
same,Treatment-related serious AE: Abdominal pain (grade 2),240 mg (n = 8),1 (13) n (%)
same,Treatment-related serious AE: Dehydration (grade 2),240 mg (n = 8),0 n (%)
same,Treatment-related serious AE: Diarrhea,240 mg (n = 8),1 (13) n (%)
same,"Treatment-related serious AE: Diarrhea, Grade 2",240 mg (n = 8),1 (13) n (%)
same,"Treatment-related serious AE: Diarrhea, Grade 3",240 mg (n = 8),0 n (%)
same,Treatment-related serious AE: Febrile neutropenia (grade 3),240 mg (n = 8),0 n (%)
same,Treatment-related serious AE: Hematemesis (grade 3),240 mg (n = 8),0 n (%)
same,Treatment-related serious AE: Nausea (grade 3),240 mg (n = 8),1 (13) n (%)
same,Treatment-related serious AE: Neutropenia (grade 4),240 mg (n = 8),0 n (%)
same,Treatment-related serious AE: Non-cardiac chest pain (grade 3),240 mg (n = 8),1 (13) n (%)
same,Treatment-related serious AE: Thrombocytopenia (grade 4),240 mg (n = 8),0 n (%)
same,Treatment-related serious AE: Vomiting,240 mg (n = 8),1 (13) n (%)
same,"Treatment-related serious AE: Vomiting, Grade 2",240 mg (n = 8),0 n (%)
same,"Treatment-related serious AE: Vomiting, Grade 3",240 mg (n = 8),1 (13) n (%)
same,Patients with any treatment-emergent AE,300 mg (n = 4),4 (100) n (%)
same,Patients with any treatment-emergent serious AE,300 mg (n = 4),2 (50) n (%)
same,Patients with any treatment-related AE,300 mg (n = 4),4 (100) n (%)
same,"Patients with any treatment-related AE, Grade 3",300 mg (n = 4),3 (75) n (%)
same,"Patients with any treatment-related AE, Grade 4",300 mg (n = 4),2 (50) n (%)
same,"Patients with any treatment-related AE, Grade 5",300 mg (n = 4),0 n (%)
same,Patients with any treatment-related serious AE,300 mg (n = 4),2 (50) n (%)
same,Treatment-related AE: Abdominal pain,300 mg (n = 4),1 (25) n (%)
same,Treatment-related AE: Anemia,300 mg (n = 4),0 n (%)
same,Treatment-related AE: Asthenia,300 mg (n = 4),1 (25) n (%)
same,Treatment-related AE: Decrease appetite,300 mg (n = 4),1 (25) n (%)
same,Treatment-related AE: Diarrhea,300 mg (n = 4),4 (100) n (%)
same,Treatment-related AE: Dysgeusia,300 mg (n = 4),1 (25) n (%)
same,Treatment-related AE: Fatigue,300 mg (n = 4),2 (50) n (%)
same,Treatment-related AE: Myalgia,300 mg (n = 4),0 n (%)
same,Treatment-related AE: Nausea,300 mg (n = 4),1 (25) n (%)
same,Treatment-related AE: Neutropenia,300 mg (n = 4),2 (50) n (%)
same,Treatment-related AE: Thrombocytopenia,300 mg (n = 4),3 (75) n (%)

# From PMC7211202 (Investigational New Drugs, 2019)
